Data taken from PubChem BioAssay AID463074 (Broad Institute, 2010).
The source made the active and inactive calls.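 Rule for the calls: active = AC50 no more than tenfold above the top dose tested, or full inhibition at every dose with a flat fit (cut at about 19 µM in these data); inconclusive = flat curve fit with inhibition between 30% and 70%, or poor fit; inactive = AC50 more than tenfold above the top dose tested.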 Residues, ends and D or L forms follow the SMILES beside them. *: point of attachment. Boc = CC(C)(C)OC(=O)*; Bn = c1ccc(C*)cc1

The compounds below were run on HMLE_sh_eGFP viability, CellTiter-Glo luminescence, 72 h (assay: cytotoxicity in HMLE control line with eGFP shRNA, dose response, counter-screen for HMLE_sh_ECad selective toxicity project, cell-based, HMLE_sh_eGFP, luminescence (AID 463074);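 note: counterscreen control line to flag general toxicity for the HMLE_sh_ECad screen; potency for loss of viability as luminescence drops below DMSO wells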).

| SMILES | AC50 |
| --- | --- |
| O=C(Oc1ccc(Br)cc1C(=O)/C=C/c1ccccc1F)c1ccco1 | 4.19 µM |
| NCCc1ccc(OCc2ccccc2)c(OCc2ccccc2)c1 | 13.6 µM |
| CCOC(=O)/C(=C\c1ccc([N+](=O)[O-])cc1)C(=O)c1cc(C(C)=O)c(Nc2ccccc2)s1 | 1.07 µM |
| O=C(N/N=C/c1cc(Cl)ccc1O)C(=O)Nc1ccccc1OC(F)(F)C(F)F | 3.9 µM |
| Cc1nc(C2CCC3C4CCC5=CC(=O)CC[C@]5(C)C4CC[C@]23C)cs1 (some centres not stated) | 7.15 µM |
| COc1ccc(/C=C/C(=O)c2ccncc2)c2ccccc12 | 10 µM |
| Cc1ccc(NNC(=O)C(O)(c2cccc(C(F)(F)F)c2)c2cccc(C(F)(F)F)c2)cc1 | 3.29 µM |
| CCOC(=O)c1c(C)oc2c1C(=O)c1ccccc1C2=O | 4.72 µM |
| CCCCCCCCOC(=O)c1c(CSC(=N)N)n(C)c2cc(Br)c(OC(C)=O)cc12 | 3.72 µM |
| CC(C)N1CCN(Cc2ccc(OC3CCCC3)cc2)CC1CCO (configuration not stated) | 16.7 µM |
| CCCCCCSc1cccc(-c2nc3ccc(C)cn3c2NCc2ccccc2)c1 | 3.37 µM |
| Oc1ccc(Nc2nc(-c3ccc4ccccc4c3)cs2)cc1 | 7.1 µM |
| O=C(NNc1ccccc1Br)C(=O)n1ccc2ccccc21 | 8.69 µM |
| COc1ccc(O)c(/C=N/Nc2nc(Nc3ccccc3)nc(-n3nc(C)cc3C)n2)c1 | 3.52 µM |
| Cc1c(C(=O)N(Cc2ccccc2)Cc2cccs2)cnn1-c1ccc(Cl)cc1 | 1.42 µM |
| C[C@@H]1CN([C@@H](C)CO)C(=O)Cc2cc(NC(=O)Nc3ccc(C(F)(F)F)cc3)ccc2O[C@@H]1CN(C)S(=O)(=O)c1ccc(Cl)cc1 | 1.78 µM |
| OC(CN1CCCCC1)Cn1c2ccc(Cl)cc2c2cc(Cl)ccc21 (configuration not stated) | 7.56 µM |
| CCOc1ccc(OCC(=O)N(CCC2=CCCCC2)c2c(N)n(Cc3ccccc3)c(=O)[nH]c2=O)cc1 | 6.29 µM |
| CN(C)CCNC=C(C(=O)Nc1ccc(Cl)cc1Cl)C(=O)Nc1ccc(Cl)cc1Cl | 9.23 µM |
| O=[N+]([O-])c1ccc(COc2ccc(-c3[nH]ncc3-c3ccc(Cl)cc3)c(O)c2)cc1 | 4.01 µM |
| CCCOc1ccc(/C=N/Nc2cccc([N+](=O)[O-])c2)c(O)c1 | 3.42 µM |
| OC1CCN(c2cc(-c3ccccc3)nc3cc(-c4ccc(F)cc4)nn23)CC1 | 7.31 µM |
| COc1cccc(/C=C/C(=O)c2ccc(NS(=O)(=O)c3ccc(C)cc3)cc2)c1 | 3.22 µM |
| COc1ccc(-c2cc([C@H]3[C@@H]4C=CCC[C@@]4(C)C(=O)N3Cc3ccccc3)ccc2F)cc1 | 6.8 µM |
| CCc1ccc(CCC(=O)Nc2ncc(Cc3ccccc3Cl)s2)o1 | 0.322 µM |
| CCN1CCN(CCCOc2ccc(-c3ccccc3)cc2)CC1 | 5.67 µM |

| SMILES | AC50 |
| --- | --- |
| O=c1cc(C(F)(F)F)[nH]c2c(OC(F)(F)F)cccc12 | > 19.5 µM (inactive) |
| Cc1ccc(S[C@@H](CCN2CC[C@H](C(C)(C)C)CCC2=O)c2ccccc2)cc1 | 3.57 µM |
| C=CCn1c(O)c(C2=c3ccccc3=NC2=O)sc1=Nc1ccc(O)cc1 | 6.76 µM |
| CN1CCN(c2ccccc2NC(=O)c2ccc(-c3ccc(Cl)cc3Cl)o2)CC1 | 6.57 µM |
| Oc1ccc(-c2csc(Nc3ccccn3)n2)c(O)c1 | 3.93 µM |
| CC(=O)Nc1ccc(NC(=O)CSc2ncc(C(=O)Nc3ccccc3)c(=O)n2C)cc1 | 5.44 µM |
| CCOC(=O)c1[nH]c(C)c(C(=O)OCc2ccccc2F)c1C | 1.03 µM |
| Cc1cccc(OCCNc2cc(N3CCN(C)CC3)ccc2[N+](=O)[O-])c1 | 5.34 µM |
| Cc1cc(C)c(O)c(-c2n[nH]c3c2C(c2cccc(O)c2)N(Cc2ccco2)C3=O)c1 (configuration not stated) | 6.73 µM |
| O=C(Nc1cc(N2CCOCC2)ncn1)NC1(C(F)(F)F)Oc2ccc(Cl)cc2O1 (configuration not stated) | 14.7 µM |
| N=c1c2c(ncn1Cc1ccco1)Oc1c(ccc3ccccc13)C2c1ccccc1 (configuration not stated) | 3.92 µM |
| COc1cc(/C=C/c2noc(-c3ccccc3O)n2)ccc1OC(C)=O | > 19.5 µM (inactive) |
| O=C(/C=C/c1ccc(Cl)c([N+](=O)[O-])c1)Nc1cccc(NC(=O)c2ccco2)c1 | 1.69 µM |
| Cc1ccc(S(=O)(=O)N2CCN(C(=O)COc3ccc(NC(=O)c4ccco4)cc3)CC2)cc1 | > 19.5 µM (inactive) |
| O=C(NCc1ccco1)c1ccc2c(c1)N(Cc1ccccc1)CCS2 | > 19.5 µM (inactive) |
| O=C(COC(=O)/C=C/C(=O)OCC(=O)Nc1ccccc1F)Nc1ccccc1F | 9.61 µM |
| COc1cc(OC)cc(-c2nnc(SCC(=O)N(Cc3ccccc3)C(C)(C)C)o2)c1 | 2.74 µM |
| N#C/C(=C\C=C\c1ccccc1[N+](=O)[O-])C(=O)NC1CCCCC1 | 6.88 µM |
| CC(=O)c1ccc(N2CCC(c3cc(-c4ccc(Cl)cc4)n[nH]3)CC2)c([N+](=O)[O-])c1 | 3.62 µM |
| CCCCCCCC/C=C\CCCCCCCC(=O)NCCc1ccc(O)c(O)c1 | 4.61 µM |
| CC(C)CC(NC(=O)C(NC(=O)C(Cc1ccc(OCc2ccccc2)cc1)NC(=O)OC(C)(C)C)C(C)C)C(N)=O (stereo not drawn) (Boc-Tyr(Bn)-Val-Leu-NH2; configuration not given here) | > 19.5 µM (inactive) |
| CCCCn1c(-c2cccc(C)c2)nc2cc3[nH]c(=O)c(C(C)C)nc3cc21 | 4.64 µM |
| O=C(CN1CCCCCC1)Nc1ccccc1Oc1ccccc1 | 0.808 µM |
| COc1ccc(-c2csc(NC(=S)NC(=O)/C=C/c3ccco3)n2)cc1Br | 1.98 µM |
| CC1CCCC(NC(=S)Nc2ccc(SC(F)F)cc2)C1C (configuration not stated) | 6.34 µM |
| CC1CC/C(=C\c2ccc3c(c2)OCO3)C(=O)/C1=C/c1ccc2c(c1)OCO2 (configuration not stated) | 5.09 µM |

| SMILES | AC50 |
| --- | --- |
| Cc1nn(-c2ccccc2)c(C)c1/C=N/n1c(-c2ccc(C(C)(C)C)cc2)n[nH]c1=S | 6.74 µM |
| CC(C)c1ccc2c(c1)c(SC(C)(C)C)c(CC(C)(C)C(=O)O)n2Cc1ccc(Cl)cc1 | 2 µM |
| Nc1nc(=S)c2ncn([C@@H]3O[C@H](CO)[C@@H](O)[C@H]3O)c2[nH]1 | 0.465 µM |
| Cc1[nH]n(-c2ccc([N+](=O)[O-])cc2)c(=O)c1C=NCCN1CCN(C(=O)C(C)C)CC1 | 5.14 µM |
| FC(F)(F)c1cccc(NC(=S)N(CCCN2CCCC2)Cc2cccn2Cc2ccc(Cl)cc2)c1 | 3.51 µM |
| Cc1csc(N/N=C/c2ccccn2)n1 | 11 µM |
| Cc1cccc(Nc2nc(N)c([N+](=O)[O-])c(N3CC(C)CC(C)C3)n2)c1 (configuration not stated) | 6.75 µM |
| CC1(C)CCC[C@]2(C)[C@H]3Cc4cc(O)ccc4O[C@]3(C)CC[C@@H]12 | 6.89 µM |
| O=C(Nc1cccc(S(=O)(=O)N2CCCCC2)c1)c1ccc([N+](=O)[O-])o1 | 3.83 µM |
| Cc1ccc(NS(=O)(=O)c2cc([N+](=O)[O-])ccc2NNC(=S)Nc2cc(C)ccc2C)c(C)c1 | 2.6 µM |
| COc1cc(Br)cc(/C=C/c2ccc3cccc(O)c3n2)c1O | 3.91 µM |
| COc1ccc(-c2nc3cnccn3c2NC2CCCCC2)cc1-c1cccc(Cl)c1 | 6.62 µM |
| COCCNC(=O)NC1(C(F)(F)F)Oc2ccc(Cl)cc2O1 (configuration not stated) | 17.6 µM |
| O=C(CCC1CCCC1)Nc1ccc(C(=O)NCc2cccnc2)cc1 | 1.04 µM |
| CCSc1nnc(NC(=O)NC(CC)(C(F)(F)F)C(F)(F)F)s1 | 12 µM |
| Cc1ccc(C(NC(=O)C(C)C)c2cc([N+](=O)[O-])c3cccnc3c2O)cc1 (configuration not stated) | 3.16 µM |
| COc1ccc2nc(C)cc(SCC(=O)N/N=C/c3cccc4ccccc34)c2c1 | 1.86 µM |
| CN(Cc1cnc2nc(N)nc(N)c2n1)c1ccc(C(=O)N[C@@H](CCC(=O)O)C(=O)O)cc1 | < 0.16 µM |
| CC(=O)Oc1ccc(-c2csc(Nc3ccc(Cl)cn3)n2)cc1 | 4.6 µM |
| Cc1ccccc1OCC(O)Cn1c2ccccc2c2ccccc21 (configuration not stated) | 6.78 µM |
| CC(C)(C)C1CCC2(CC1)C(C#N)=C(SCC(=O)NC1CCCCC1)NC(=O)C2C#N (configuration not stated) | 9.88 µM |
| N#CC1(NC(=O)COC(=O)c2cc(O)c3ccccc3c2O)CCCCC1 | 9.15 µM |
| O=C1NC(=Nc2ccc(Cl)cc2)SC1Cc1cccc(Cl)c1Cl (configuration not stated) | > 19.5 µM (inactive) |
| CC(=O)N1c2ccc(Cl)cc2C2C=CCC2C1c1cccc2ccccc12 (configuration not stated) | 5.36 µM |
| CCN(CC)S(=O)(=O)c1ccc2c(c1)C(=NO)c1cc(S(=O)(=O)N(CC)CC)ccc1-2 | 0.756 µM |
| CC1=NN(c2ccccc2)C(=O)/C1=C/C=C/c1ccccc1 | 3.57 µM |

| SMILES | AC50 |
| --- | --- |
| COc1ccc(/C=C2\C(=O)c3ccccc3OC2c2ccccc2)cc1 (configuration not stated) | 1.38 µM |
| COc1c(OC(C)=O)ccc(/C=C/c2ccc3cccc(OCc4ccccc4)c3n2)c1[N+](=O)[O-] | 3.37 µM |
| COc1cc(NS(=O)(=O)c2ccc(N/C=C(\C#N)c3nc4cc(Cl)ccc4o3)cc2)nc(OC)n1 | 7.54 µM |
| CCCCCc1ccc(OCCCC[n+]2cccc(C)c2)c(CCCCC)c1 | 7.42 µM |
| N/C(=N\N=C/c1ccc(Br)cc1)N/N=C\c1ccc(Br)cc1 | 3.83 µM |
| CNC(=O)NC(=O)C(C)OC(=O)c1oc2ccccc2c1CSc1ccc(Cl)cc1 (configuration not stated) | 19.3 µM |
| CCOc1cc2c(cc1OCC)-n1cccc1C(c1ccc(C(C)C)cc1)NC2 (configuration not stated) | 6.13 µM |
| COc1ccc(CCNc2ccc(C(CC(N)=O)NC(=O)c3ccc(Br)cc3)cc2[N+](=O)[O-])cc1 (configuration not stated) | 11.7 µM |
| CC(=O)n1c2c(c3ccccc31)OC(N)=C(C#N)C2c1cccc(Cl)c1Cl (configuration not stated) | 4.88 µM |
| O=C(N/N=C/c1ccc(OC2CSC2)cc1)c1ccccc1 | 2.85 µM |
| CC(=O)Nc1ccc(OCC(O)CN2CCN(c3cc(Cl)ccc3C)CC2)cc1 (configuration not stated) | 5.17 µM |
| COc1cc2c(-c3ccc(O)cc3)nc3c(c(C)nn3-c3ccccc3)c2cc1OC | 3.92 µM |
| O=C1CC(N(CCc2ccccc2)C(=S)Nc2cc(Cl)ccc2Cl)C(=O)N1c1c(Cl)cccc1Cl (configuration not stated) | > 19.5 µM (inactive) |
| O=C(N/N=C/c1cc([N+](=O)[O-])ccc1O)c1c[nH]c2ccccc12 | 16.5 µM |
| CC(=O)Oc1c(Cl)cc(Cl)cc1/C=C/c1ccc2ccccc2n1 | 2.86 µM |
| CC(NC(=O)c1ccc([N+](=O)[O-])o1)C12CC3CC(CC(C3)C1)C2 (configuration not stated) | 9.54 µM |
| COC(=O)C1=C(C)N(Cc2ccccc2)C(=NCc2cccc(Cl)c2)N[C@H]1c1cccc(F)c1 | 3.62 µM |
| Cc1ccc(-c2nc(Nc3cccc(O)c3)c3ccccc3n2)cc1 | 7.23 µM |
| CC(=O)c1ccc(N2CCN(S(=O)(=O)c3cc(-c4cc(C)no4)ccc3C(C)C)CC2)cc1 | 0.205 µM |
| COc1cccc(/C=N/Nc2ncc(C(F)(F)F)cc2Cl)c1O | 0.665 µM |
| Cc1ccnc(NC(=O)CSc2cc(=O)n(C)c3ccccc23)c1 | 8.16 µM |
| CCCOc1ccccc1-n1sc2c(c1=S)-c1cc(OC)cc3c1N(C(=O)C3=O)C2(C)C | 9.1 µM |
| COC(=O)c1cc(=O)n(Cc2ccc(F)cc2)c(=Nc2ccccc2)s1 | 5.87 µM |
| CCCCCC(=O)Nc1nc(C)c(-c2csc(Nc3cc(OC)ccc3OC)n2)s1 | 2.11 µM |
